The record followed here is US20260167671A1, “IMMUNOMODULATORS” (Bristol-Myers Squibb Company, priority 2021, published 2026).

Structures are written as SMILES. Like-named read-outs stand apart in the source and are kept apart here.

This test deals with T1, human PD-L1 (293T-hPD-L1 cells; binding of PE-labeled PD-1-Ig) (Homo sapiens, UniProt Q9NZQ7).
T1 construct: expressed in transfected cells; host or cells: 293T (human embryonic kidney) stably over-expressing human PD-L1
Briefly: 293T-hPD-L1 Cell Binding High-Content Screening Assay (CBA). Here is the method:
293T-hPD-L1 Cell Binding High-Content Screening Assay (CBA).
Phycoerythrin (PE) was covalently linked to the Ig epitope tag of human PD-1-Ig and fluorescently-labeled PD-1-Ig was used for binding studies with a human embryonic kidney cell line (293T) stably over-expressing human PD-L1 (293T-hPD-L1). Briefly, 2×10^3 293T-hPD-L1 cells were seeded into 384 well plates in 20 μl of DMEM supplemented with 10% fetal calf serum and cultured overnight. 125 nl of compound was added to cells followed by 5 μl of PE-labeled PD-1-Ig (0.5 nM final), diluted in DMEM supplemented with 10% fetal calf serum, followed by incubation at 37° C. for 1 h. Cells were washed 3× in 100 μl dPBS followed by fixation with 30 μl of 4% paraformaldehyde in dPBS containing 10 μg/ml Hoechst 33342 for 30 min at room temperature. Cells were washed 3× in 100 μl of dPBS followed by final addition of 15 μl of dPBS. Data was collected and processed using a Cell Insight NXT High Content Imager and associated software.
Table 1 lists the IC50 values for representative examples of this disclosure measured in the 293T-hPD-L1 Cell Binding High-Content Screening Assay.

T1 sequence (Q9NZQ7 19-290): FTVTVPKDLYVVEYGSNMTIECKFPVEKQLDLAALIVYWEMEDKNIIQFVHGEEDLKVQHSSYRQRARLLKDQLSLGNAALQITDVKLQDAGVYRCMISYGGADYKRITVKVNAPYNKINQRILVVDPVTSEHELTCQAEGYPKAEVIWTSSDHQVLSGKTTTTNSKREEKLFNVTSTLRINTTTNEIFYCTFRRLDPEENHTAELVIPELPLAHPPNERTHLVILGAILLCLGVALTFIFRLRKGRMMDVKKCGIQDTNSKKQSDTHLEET

Take `CCCC[C@H]1C(=O)N(C)[C@@H](CCCC)C(=O)N[C@@H](CC(C)C)C(=O)N[C@H](C(=O)NCC(=O)N[C@@H](Cc2cn(CCOCCOCCOCCOCCOCCOCCOCCOCCOCCOCCOCCNC(=O)CC[C@H](NC(=O)CCCCCCCCCOc3ccc(C(=O)O)cc3)C(=O)O)nn2)C(=O)O)CSCC(=O)N[C@@H](Cc2ccc(O)cc2)C(=O)N(C)[C@@H](C)C(=O)N[C@@H](CC(N)=O)C(=O)N2CCC[C@H]2C(=O)N[C@@H](CN)C(=O)N[C@@H](CC(C)C)C(=O)N2C[C@H](O)C[C@H]2C(=O)N[C@@H](Cc2c[nH]c3ccccc23)C(=O)N[C@@H](CCN)C(=O)N[C@@H](Cc2cn(CC(=O)O)c3ccccc23)C(=O)N1C` [Example 1001]: the IC50 (293T cells stably over-expressing human PD-L1, PE-labeled human PD-1-Ig 0.5 nM final, 37° C. for 1 h, read-out: 293T-hPD-L1_PD-1 IC50) came to 3.3 nM.

`CCCC[C@H]1C(=O)N(C)[C@@H](CCCC)C(=O)N[C@@H](CC(C)C)C(=O)N[C@H](C(=O)NCC(=O)N[C@@H](Cc2cn(CCOCCOCCOCCOCCOCCOCCOCCOCCOCCOCCOCCNC(=O)CC[C@H](NC(=O)CCCCCCCCCCCOc3ccc(C(=O)O)cc3)C(=O)O)nn2)C(=O)O)CSCC(=O)N[C@@H](Cc2ccc(O)cc2)C(=O)N(C)[C@@H](C)C(=O)N[C@@H](CC(N)=O)C(=O)N2CCC[C@H]2C(=O)N[C@@H](CN)C(=O)N[C@@H](CC(C)C)C(=O)N2C[C@H](O)C[C@H]2C(=O)N[C@@H](Cc2c[nH]c3ccccc23)C(=O)N[C@@H](CCN)C(=O)N[C@@H](Cc2cn(CC(=O)O)c3ccccc23)C(=O)N1C` [Example 1003] yielded an IC50 of 3.6 nM.

Usually IC50 stands for the point on the concentration scale where inhibition reaches its midpoint.
